According to ChEMBL document CHEMBL5352384, “Identification of new FK866 analogues with potent anticancer activity against pancreatic cancer” (Eur J Med Chem, 2022):
The source made the active and inactive calls. The calls are words filed in the database; no cut-off is given here.

Legend:
Jurkat [1] = experiment: Antiproliferative activity against human Jurkat cells assessed as inhibition of cell growth measured after 72 hrs by XTT assay; assay type: functional, cell-based
MIA PaCa-2 = experiment: Antiproliferative activity against human MIA PaCa-2 cells assessed as inhibition of cell growth measured after 72 hrs by XTT assay; assay type: functional, cell-based; details: MIA PaCa-2, 72 h
BXPC-3 = experiment: Antiproliferative activity against human BXPC-3 cells assessed as inhibition of cell growth measured after 72 hrs by XTT assay; assay type: functional, cell-based; details: BXPC-3, 72 h
PANC-1 [2] = experiment: Antiproliferative activity against human PANC-1 cells assessed as inhibition of cell growth measured after 72 hrs by XTT assay; assay type: functional, cell-based; details: PANC-1, 72 h
Jurkat [3] = experiment: Induction of apoptosis in human Jurkat cells assessed as cell death at upto 1000 nM measured after 96 hrs by annexin V and 7AAD double staining based flow cytometry analysis; assay type: functional
Jurkat [4] = experiment: Induction of apoptosis in human Jurkat cells assessed as caspase-3 cleavage at 10 nM measured after 96 hrs by flow cytometry analysis; assay type: functional, cell-based
Jurkat [5] = experiment: Antiproliferative activity against human Jurkat cells assessed as reduction in cell viability at 10 nM incubated for 96 hrs in presence of NAD+ by annexin V and 7AAD double staining based flow cytometry analysis; assay type: functional
Jurkat [6] = experiment: Antiproliferative activity against human Jurkat cells assessed as reduction in cell viability at 10 nM incubated for 96 hrs in presence of NMN by annexin V and 7AAD double staining based flow cytometry analysis; assay type: functional
PANC-1 [7] = experiment: Cytotoxicity against human PANC-1 cells assessed as reduction in cell viability measured after 72 hrs by resazurin staining based fluorescent plate reader; assay type: functional; details: PANC-1, 72 h

Structure (SMILES)	IC50 (Jurkat [1]) [nM]	IC50 (MIA PaCa-2) [nM]	further results
O=C(/C=C/c1ccc(Cl)nc1Cl)NCCCCC1CCN(C(=O)c2ccccc2)CC1	2500	–	–
O=C(/C=C/c1cccnc1)NCCCCC1CCN(C(=O)C2CCOCC2)CC1	30	–	–
O=C(/C=C/c1cccnc1)NCC(O)CCC1CCN(C(=O)c2ccccc2)CC1 (centres undefined)	3500	–	–
COc1cc(C(=O)N2CCC(CCCCNC(=O)/C=C/c3cccnc3)CC2)cc(OC)c1OC	10	–	–
CC(=O)c1cccc(C(=O)N2CCC(CCCCNC(=O)/C=C/c3cccnc3)CC2)c1	850	–	–
COc1cccc(C(=O)N2CCC(CCCCNC(=O)/C=C/c3cccnc3)CC2)c1	9	–	–
O=C(/C=C/c1cccnc1)NCCCCC1CCN(C(=O)c2ccc(F)cc2)CC1	10	–	–
COc1ccc(OC)c(C(=O)N2CCC(CCCCNC(=O)/C=C/c3cccnc3)CC2)c1	4.3	3.9	IC50 (BXPC-3): 13 nM; IC50 (PANC-1 [2]): 2.8 nM
COc1cccc(OC)c1C(=O)N1CCC(C/C=C/CNC(=O)/C=C/c2cccnc2)CC1	5	2.7	IC50 (BXPC-3): 0.4 nM; IC50 (PANC-1 [2]): 2.3 nM
O=C(/C=C/c1cccnc1)NCCCCC1CCN(C(=O)CCc2ccccc2)CC1	28	–	–
O=C(/C=C/c1cccnc1)NCCCCC1CCN(C(=O)Cc2ccccc2)CC1	18	–	–
O=C(/C=C/c1cccnc1)NCCCCC1CCN(C(=O)C2CCCOC2)CC1 (centres undefined)	35	–	–
O=C(/C=C/c1cccnc1)NCCCOC1CCN(C(=O)c2ccccc2)CC1	800	–	–
COc1cccc(OC)c1C(=O)N1CCC(CCCCNC(=O)/C=C/c2cccnc2)CC1	0.8	0.5	IC50 (BXPC-3): 0.004 nM; IC50 (PANC-1 [2]): 0.6 nM; Activity (Jurkat [5]): inactive; Activity (Jurkat [6]): inactive; Activity (Jurkat [3]): Active; Activity (Jurkat [4]): Active
O=C(/C=C/c1cccnc1)NC/C=C/CC1CCN(C(=O)c2ccccc2)CC1	10	13	IC50 (BXPC-3): 34 nM; IC50 (PANC-1 [2]): 8.6 nM
O=C(NCCCc1cn[nH]c1)c1ccc(-c2ccncc2)c(C#Cc2ccc(F)cc2)c1	–	–	EC50 (PANC-1 [7]): 3.5 nM
O=C(/C=C/c1cccnc1)NCCCCC1CCN(S(=O)(=O)c2ccccc2)CC1	16	–	–
O=C(/C=C/c1cccnc1)NCCCCC1CCN(C(=O)c2ccc([N+](=O)[O-])cc2)CC1	68	–	–
COc1ccccc1C(=O)N1CCC(CCCCNC(=O)/C=C/c2cccnc2)CC1	2.3	1	IC50 (BXPC-3): 0.5 nM; IC50 (PANC-1 [2]): 0.08 nM; Activity (Jurkat [5]): inactive; Activity (Jurkat [6]): inactive; Activity (Jurkat [3]): Active; Activity (Jurkat [4]): Active
COc1cc(OC)c(C(=O)N2CCC(C/C=C/CNC(=O)/C=C/c3cccnc3)CC2)c(OC)c1	3	0.8	IC50 (BXPC-3): 2.8 nM; IC50 (PANC-1 [2]): 0.4 nM
COc1cccc(OC)c1C(=O)N1CCC(CCCCNC(=O)/C=C/c2cnccn2)CC1	> 1000	–	–
COc1cc(C=O)cc(OC)c1C(=O)N1CCC(CCCCNC(=O)/C=C/c2cccnc2F)CC1	0.8	3	IC50 (BXPC-3): 53 nM; IC50 (PANC-1 [2]): 16 nM
O=C(/C=C/c1cnccn1)NCCCCC1CCN(C(=O)c2ccccc2)CC1	> 1000	–	–
COc1cccc(C(=O)N2CCC(CCCCNC(=O)/C=C/c3cccnc3)CC2)c1OC	3.6	4.5	IC50 (BXPC-3): 25 nM; IC50 (PANC-1 [2]): 3.2 nM; Activity (Jurkat [5]): inactive; Activity (Jurkat [6]): inactive; Activity (Jurkat [3]): Active; Activity (Jurkat [4]): Active
O=C(/C=C/c1cccnc1)NCCCCC1CCN(C(=O)C2CCCO2)CC1 (centres undefined)	30	–	–

The next lines start with results.

IC50 (Jurkat [1]) [nM]	IC50 (MIA PaCa-2) [nM]	Structure (SMILES)	further results
6.7	13.5	O=C(/C=C/c1ccc(F)nc1F)NCCCCC1CCN(C(=O)c2ccccc2)CC1	IC50 (BXPC-3): 31 nM; IC50 (PANC-1 [2]): 14 nM
28	–	COc1ccc(C(=O)N2CCC(CCCCNC(=O)/C=C/c3cccnc3)CC2)c(OC)c1OC	–
2500	–	O=C(/C=C/c1cccnc1)NCC1OC1CC1CCN(C(=O)c2ccccc2)CC1 (centres undefined)	–
0.6	2.2	O=C(/C=C/c1cccnc1)NCCCCC1CCN(C(=O)c2ccccc2)CC1 [DAPORINAD]	IC50 (BXPC-3): 0.3 nM; IC50 (PANC-1 [2]): 0.6 nM; Activity (Jurkat [3]): Active; Activity (Jurkat [4]): Active
33	69	O=C(/C=C/c1ccnnc1)NCCCCC1CCN(C(=O)c2ccccc2)CC1	IC50 (BXPC-3): 19.4 nM
34	–	O=C(/C=C/c1cccnc1)NCCCCC1CCN(C(=O)c2ccc(CO)cc2)CC1	–
1	0.16	COc1cc(OC)c(C(=O)N2CCC(CCCCNC(=O)/C=C/c3cccnc3)CC2)c(OC)c1	IC50 (BXPC-3): 1.7 nM; IC50 (PANC-1 [2]): 0.9 nM; Activity (Jurkat [5]): inactive; Activity (Jurkat [6]): inactive; Activity (Jurkat [3]): Active; Activity (Jurkat [4]): Active
400	–	Cc1ccc(S(=O)(=O)N2CCC(CCCCNC(=O)/C=C/c3cccnc3)CC2)cc1	–
2500	–	O=C(/C=C/c1cccnc1Cl)NCCCCC1CCN(C(=O)c2ccccc2)CC1	–
8.4	4	COc1ccc(C(=O)N2CCC(CCCCNC(=O)/C=C/c3cccnc3)CC2)c(OC)c1	IC50 (BXPC-3): 24 nM; IC50 (PANC-1 [2]): 0.2 nM
5.8	3.9	O=C(/C=C/c1cccnc1)NCCCCC1CCN(C(=O)c2ccccc2O)CC1	IC50 (BXPC-3): 8.1 nM; IC50 (PANC-1 [2]): 1.3 nM
350	–	O=C(/C=C/c1cccnc1)NCCCCC1CCN(C(=O)C2CCC(=O)N2)CC1 (centres undefined)	–
50	–	O=C(/C=C/c1cccnc1)NCCCCC1CCN(C(=O)C2CCCCO2)CC1 (centres undefined)	–
32	–	COc1ccc(C(=O)N2CCC(CCCCNC(=O)/C=C/c3cccnc3)CC2)cc1OC	–
36	–	O=C(/C=C/c1cccnc1)NCCCCC1CCN(C(=O)/C=C/c2ccccc2)CC1	–
6.5	24	COc1cccc(OC)c1C(=O)N1CCC(CCCCNC(=O)/C=C/c2cccnc2F)CC1	IC50 (PANC-1 [2]): 5.7 nM
35	25	COc1cccc(OC)c1C(=O)N1CCC(CCCCNC(=O)/C=C/c2ccnnc2)CC1	IC50 (BXPC-3): 15.6 nM
0.4	0.25	COc1cc(C=O)cc(OC)c1C(=O)N1CCC(CCCCNC(=O)/C=C/c2cccnc2)CC1	IC50 (BXPC-3): 13 nM; IC50 (PANC-1 [2]): 1.9 nM
100	–	O=C(/C=C/c1ccc[n+]([O-])c1)NCCCCC1CCN(C(=O)c2ccccc2)CC1	–
20	–	O=Cc1ccc(C(=O)N2CCC(CCCCNC(=O)/C=C/c3cccnc3)CC2)cc1	–
73	75	COc1cccc(OC)c1C(=O)N1CCC(CCCCNC(=O)/C=C/c2ccc(F)nc2F)CC1	IC50 (PANC-1 [2]): 2 nM
850	–	COc1cccc(OC)c1C(=O)N1CCC(OCCCNC(=O)/C=C/c2cccnc2)CC1	–
> 200	–	O=C(/C=C/c1cccnc1)NCCC1CCN(C(=O)c2ccccc2)CC1	–
800	–	CC(=O)c1ccc(C(=O)N2CCC(CCCCNC(=O)/C=C/c3cccnc3)CC2)cc1	–
100	–	COc1ccc(C(=O)N2CCC(CCCCNC(=O)/C=C/c3cccnc3)CC2)cc1	–
40	–	O=Cc1cccc(C(=O)N2CCC(CCCCNC(=O)/C=C/c3cccnc3)CC2)c1	–
2.3	4	O=C(/C=C/c1cccnc1F)NCCCCC1CCN(C(=O)c2ccccc2)CC1	–
> 1000	–	O=C(/C=C/c1cccnc1)NCCCCC1CCN(C(=O)c2ccc(C(F)(F)F)cc2)CC1	–
100	–	O=C(/C=C/c1cccnc1)NC/C=C/C1CCN(C(=O)c2ccccc2)CC1	–
32	–	O=C(/C=C/c1cccnc1)NCCCCC1CCN(C(=O)C2CCCCC2)CC1	–
